Laboratory results as given in US5929082A, “Potassium ion channel blockers” (priority 1995, dated 1999).

Experiments:
[1] = Kinetic/metabolite studies: HPLC analysis of plasma after oral administration; type: in vivo, Sprague-Dawley rats; details: for Compound in plasma / metabolites observed in plasma: after oral administration, HPLC; for metabolites observed in plasma: in words; for time within which the compound is metabolised after administration: oral administration
Description: Plasma samples were collected in order to test the correlation of plasma drug (or metabolite) concentration with hypoglycaemic activity, and to determine whether compounds of the invention were converted in vivo into active metabolites. The plasma levels of test compounds or metabolites also give an indication of rate of metabolism and kinetics of drug action.
Blood samples collected from rats treated as above and collected at the same intervals were analysed using an ICI LC1150 HPLC system and a LC1210 UV detector at a wavelength of 227 nm. The HPLC system used a Merck LiChroCART 125-4 LiChrosphere 100 RP-18 HPLC and LiChrosphere 100 RP-18 guard columns. The mobile phase consisted of 70% acetonitrile and a 30% aqueous sodium phosphate buffer at pH 7.45 and was prepared using standard HPLC grade reagents and distilled water. To improve the resolution of peaks and separation of the compounds a gradient method was established where changes in the concentration of the required buffers and solvents, and the time at which these changes occur is outlined in Table 7. The volumes are expressed as percentages of the total flow rate, with the flow rate remaining constant at […].
The data were acquired using the WinChrom Data Management system and were calibrated using stock solutions of the test compounds and Glibenclamide as an internal standard dissolved in 100% methanol
Plasma (250 μL) collected from the rats were extracted into methanol (700 μL) and 50 μL of Glibenclamide (25 μg/ml). The mixture was then agitated with a vortex mixer for 15 sec and centrifuged for 10 min. The clear supernatant was then carefully aspirated for HPLC analysis.
The results are outlined in Table 8 and show retention times (minutes) for the compounds and their metabolites as analysed by HPLC after oral administration in Sprague-Dawley rats. […] Glibenclamide is shown for comparison only, none of the metabolites observed with the test compounds correspond to metabolites of Glibenclamide.

[2] = system: MCF-7 mammary carcinoma cells; test: Thymidine uptake ([methyl-3H] thymidine incorporation into DNA); type: cell-based, human; details: 100 μM (printed 100 μH / 100 mM), compared to control group; Glibenclamide n=3, Compound 1-24 n=4
Description: Incorporation of [methyl-3H] thymidine into DNA was measured as described by Murphy and Lazarus (1983), using MCF-7 mammary carcinoma cells treated with compound 1-24 (100 μH) and a control group. The growth medium from cells cultured as described in Example 24 was aspirated from the wells, and 1 mL of fresh growth medium containing 1 μCi [3H]-thymidine (Amersham) was added to each well After 4 hours incubation, the medium was aspirated and the monolayers were washed three times with ice cold phosphate buffered saline (ICN). This was followed by three washes with 10% (v/v) ice cold trichloroacetic acid, each of 5 minutes duration. After another three washes with absolute ethanol at room temperature of 5 minutes duration, the monolayer was dried at room temperature for 10 minutes. The monolayer was […] after incubation for 12 hours with 0.5 N NaOH and 1% Triton-X 100 (Sigma). An aliquot of the cell lysate was added to 10 ml of Ultima Gold (Packard) and counted using a liquid scintillation counter (Packard model 19006A).

[3] = Hypoglycaemic activity: change in blood glucose after oral gavage; type: in vivo, Sprague Dawley rats; details: 1.6 mg/kg oral gavage, normal fed male rats
Description: The biological activity of representative compounds of the invention was evaluated by means of several different tests. The activity of compounds of this invention as hypoglycaemic agents was measured and compared with the activity of the known compound of Example 1, using methods described in the literature. Thus normal, fed male Sprague Dawley rats weighing between 275 and 375 g were studied for changes in blood sugar levels and alterations to mean arterial blood pressure following administration of representative compounds of the invention suspended in a 5% solution of gum acacia by oral gavage at a dose of 1.6 mg/kg. The concentration of each compound was 4 mg in 10 ml, so that each rat received 1.1-1.5 ml to obtain the desired dose on a body weight basis. The blood sugar levels were recorded for each rat immediately prior to administration, and at 1, 2, and 3 hr following administration of the test compounds. Blood glucose levels were determined on blood samples taken from the tail, and analysed on an Ames blood glucometer, model 5626, and Ames, 2627 blood glucose strips (number 2). […] It is apparent that generally the heterocyclic sulphonylthioureas have greater activity than the sulphonylureas. Without wishing to be bound by any proposed mechanism for the observed effect, we believe that this may be associated with differences in lipid permeability.

[4] = system: MCF-7 human mammary carcinoma cells; test: Cell proliferation of MCF-7 tumour cells; type: cell-based; details: 100 μM compound
Description: The ability of a representative compound of the invention to inhibit proliferation of a tumour cell line was examined. MCF-7 human mammary carcinoma cells (Woodfork et al, 1995) were grown in 25 cm^2 Corning flasks in a 5% CO2 water jacket incubator. The medium used for the culture was RPMI 1640 (ICN) and was supplemented with 10% foetal Bovine serum (Cytosystems).
Cells and medium were examined daily to check for growth and infection. The medium was changed every second day. When cells reached 70-80% confluence, the cells were trypsinized with 0.05% trypsin (1:250, "DIFCO") and 0.02% EDTA.
The flasks were firstly washed with a phosphate buffer to remove residual RPMI 1640 medium, then covered with 2 mL of the trypsin solution and left in the incubator for 3-5 minutes. The cells were then transferred to a conical tube containing 2 mL of medium and 10% foetal bovine serum. The cells were centrifuged at 1000 rpm for 3 minutes and the supernatant removed 5 ml of the medium was then added to the pellet of cells and resuspended with a 2 ml pipette.
Approximately 10 μL of medium containing the cells was placed in a Neubauer haemocytometer, and the cells were counted in the 4×1 mm^2 grid per chamber. Cells were then diluted to contain 60×10^4 cells to be added to "Corning" 24 well plates (16 mm diameter). Wells respectively containing the control group and 100 μM compound 1-24 were established, and 3 wells/group/day were used to perform the cell growth study.
Each well contained 500 μL of medium or of compound 1-24. Plates were incubated for 24 hours before counting. The medium was aspirated with different pipette tips for the different study groups 100 μL of 0.02% EDTA solution was added to each well and incubated for 5 minutes. 200 μL of trypsin-EDTA was then added, and the cells incubated for a further 5 minutes, aspirated, and placed in 0.5 mL Eppendorf tubes before counting in a haemocytometer.

[5] = system: isolated guinea pig atria; test: Cardiac effects on isolated atrial preparations; design: species or system English short-haired guinea pigs; details: bath concentration 8×10^-6 M, 37° C., maximum responses
Description: Preliminary investigations were performed on isolated atrial preparations, and the results obtained using representative compounds of the invention compared to those obtained using the known compound of Example 1 and using Glibenclamide. English short-haired guinea pigs weighing between 200 and 300 g were killed by cervical dislocation. The whole heart was quickly removed by dissection and immersed in a Krebs-Henseleit solution, which had been aerated with carbogen (95% oxygen and 5% carbon dioxide). The atria were then separated by dissection in Krebs-Henseleit solution, whilst being aerated with carbogen.
The atria were then immersed in a 10 ml organ bath containing Krebs-Henseleit solution, maintained at 37° C. for the duration of the experiment by the circulation of water through the water jackets of organ baths by a temperature controlled water pump (Braun Thermomix, Germany), and aerated with carbogen. […] Changes in tension were measured by isometric force transducers and were recorded on a four channel Grass 7P Polygraph (Grass Instruments, Quincy, Mass., USA) which was calibrated daily such that the atria functioned with a resting tension of 1 g. The rate of beating of the atria was measured by the tachograph.
The activity of each test compound was assessed and compared to that of glibenclamide. […]

[6] = Cohen, 1986; cited from earlier work

Row | Structure (SMILES) | Compound in plasma [1] | metabolites observed in plasma [1] | Change in Blood Glucose, 0 hours [3] [mmol/L] | Change in Blood Glucose, 1 Hour [3] [mmol/L] | Change in Blood Glucose, 2 Hours [3] [mmol/L] | Change in Blood Glucose, 3 Hours [3] [mmol/L] | other results
1 | CCOc1cccc(NC(=O)NS(=O)(=O)c2ccc(C)cc2)n1 [Compound 1-4, N-[(4-Methylphenyl)sulphonyl]-N'-(6-ethoxypyrid-2-yl)urea] | yes | no metabolites were observed in the 4 hour period |  |  |  |  | 
2 | CCOc1cccc(NC(=S)NS(=O)(=O)c2ccc(C)cc2)n1 [Compound 1-24] | no | numerous metabolites in the plasma | 0.0 | 0.5 | -2.2 | -1.8 | inhibition of thymidine uptake [2]: significant inhibition; doubling rate of control group greater than that of cells exposed to compound [4]: approximately 25%; Rate of cell growth: mean cell number, Day 0 ([4]; day 0, n=1 in triplicate): 60,000; Rate of cell growth: mean cell number, Day 1 ([4]; day 1, control 58,000): 74,000; Rate of cell growth: mean cell number, Day 2 ([4]; day 2, control 110,000): 93,000; Rate of cell growth: mean cell number, Day 3 ([4]; day 3, control 188,000): 143,000; Rate of cell growth: mean cell number, Day 6 ([4]; day 6, control 355,000): 230,000; effect on MCF-7 tumour cell proliferation ([4]; in words): reduces MCF-7 tumour cell proliferation; inotropic activity [5]: particularly marked inotropic activity; time within which the compound is metabolised after administration [1]: ≤ 2 h
3 | CCOc1cc(NC(=S)NS(=O)(=O)c2ccc(C)cc2)ccn1 [Compound 3-15, N-[(4-Methylphenyl)sulphonyl]-N'-(2-ethoxypyrid-4-yl)thiourea] | no | numerous metabolites in the plasma |  |  |  |  | time within which the compound is metabolised after administration [1]: ≤ 2 h
4 | CC(N/C(=N\C#N)Nc1ccncc1)C(C)(C)C (stereo not drawn) [pinacidil] |  |  |  |  |  |  | vasodilator activity [6]: vasodilator activity
5 | Cc1ccc(S(=O)(=O)NC(=S)Nc2nc(C)cc(C)n2)cc1 [Compound 4-36, N-[(4-Methylphenyl)sulphonyl]-N'-(4,6-dimethylypyrimid-2-yl)thiourea] |  |  | 0.0 | -1.1 | -1.6 | -1.3 | 
6 | Cc1ccc(S(=O)(=O)NC(=O)Nc2nc(C)cc(C)n2)cc1 [Compound of Example 1, reference compound] |  |  | 0.0 | -0.8 | -2.1 | -0.8 | 
7 | Cc1ccc(S(=O)(=O)NC(=S)Nc2cccc(Br)n2)cc1 [Compound 1-21, N-[(4-Methylphenyl)sulphonyl]-N'-(6-bromopyrid-2-yl)thiourea] |  |  | 0.0 | -0.9 | -2.1 | -0.7 | 
8 | Cc1ccc(S(=O)(=O)NC(=S)Nc2ccncc2)cc1 [Compound 3-23, N-[(4-Methylphenyl)sulphonyl]-N'-(4-pyridyl)thiourea] |  |  | 0.0 | -1.0 | -1.4 | -2.1 | inotropic activity [5]: particularly marked inotropic activity
